Data on 38 molecules can be found in PubChem BioAssay AID624167 (Sanford-Burnham Center for Chemical Genomics, 2012).

Calls of active or inactive are those of the source.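 The calls were made as follows: active = mean IC50 for reducing PEG3 promoter reporter signal at or below a set limit, with IC50 above the limit in both counter screens; inactive = the rest, including counter screen hits.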

In test [1] the test system is PEG-3. As to the kind of experiment: Peg3 promoter luciferase inhibitors, potency, dose response, cell-based, HeLa, CREF/GAPDH counter-screen panel (AID 624167). Conditions: HeLa PEG-Prom luciferase reporter, overnight, CREF/GAPDH counter-screens. (In general: The purpose of a counterscreen is to sort out artefacts and off-target activity.)
Test [2] deals with PEG-3 (UniProt Q6IN02). The description is as above. Conditions: HeLa PEG-Prom luciferase reporter, overnight, CREF/GAPDH counter-screens, mean of runs. On the technique in general: Reporter assays use an easily measured gene product as a stand-in for the process of interest.
The mark [3] stands for this setting: run 1, dose range 1, individual replicate IC50 per panel.
The mark [4] stands for this setting: run 2, dose range 1, individual replicate IC50 per panel.

Sequence of PEG-3 (UniProt Q6IN02) (Q6IN02 whole entry, looked up): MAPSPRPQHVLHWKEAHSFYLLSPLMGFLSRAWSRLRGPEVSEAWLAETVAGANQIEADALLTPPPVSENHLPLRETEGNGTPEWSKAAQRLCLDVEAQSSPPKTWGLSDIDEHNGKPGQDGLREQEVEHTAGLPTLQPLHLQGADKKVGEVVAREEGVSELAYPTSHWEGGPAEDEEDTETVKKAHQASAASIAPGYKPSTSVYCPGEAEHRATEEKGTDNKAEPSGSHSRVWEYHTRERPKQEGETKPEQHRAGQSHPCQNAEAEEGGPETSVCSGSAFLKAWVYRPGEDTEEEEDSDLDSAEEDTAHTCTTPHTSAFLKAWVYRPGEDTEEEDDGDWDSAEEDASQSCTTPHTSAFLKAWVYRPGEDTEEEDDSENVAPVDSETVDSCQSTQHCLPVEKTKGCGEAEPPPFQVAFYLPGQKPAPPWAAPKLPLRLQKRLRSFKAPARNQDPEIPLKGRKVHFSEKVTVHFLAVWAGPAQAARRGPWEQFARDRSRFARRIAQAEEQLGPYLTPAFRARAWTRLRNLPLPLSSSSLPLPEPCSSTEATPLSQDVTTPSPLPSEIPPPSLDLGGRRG

Regarding `Cc1ccc2cccc(OCC(=O)Nc3cccc(S(=O)(=O)N4CCCC4)c3)c2n1`, the IC50 (as a rule, the concentration that inhibits the measured activity by half) was determined as 22.3 µM in test [1] (setting [3]) and 33.9 µM in test [1] (setting [4]). In addition, in test [2], the IC50 result was “inactive”.

For `CC(C)(C)C(=O)Nc1cc2nn(-c3ccccc3)nc2cc1Cl`, the IC50 is 10.9 µM in test [1] (setting [3]), 13.5 µM in test [1] (setting [4]) and 12.2 µM in test [2].

As to `O=C1/C(=C\c2cccc(O)c2O)SC(=S)N1Cc1ccccc1`, the IC50 in test [1] (setting [3]) stood at 14.1 µM; in test [1] (setting [4]), 30.1 µM. For the same molecule, the IC50 result in test [2] was “inactive”.

On to `CCCN(CCC)CCCNC(=S)Nc1ccc2nc(N3CCCC3)cc(C)c2c1`, for which the figures for the IC50 in test [1] (setting [3]) and in test [1] (setting [4]) were 27.5 µM and 19.1 µM, respectively. Further, the IC50 entry in test [2] was “inactive”.

Regarding `CN(C)CCNc1ncnc2c1ncn2[C@H]1CN(Cc2ccc(-c3ccccc3)cc2)C[C@@H](CO)O1`, the values for the IC50 in test [1] (setting [3]) and in test [1] (setting [4]) were 30.7 µM and 17.4 µM, respectively. In addition, in test [2], the IC50 entry was “inactive”.

As for `c1ccc(CCCNCCCn2cnc3c(OCc4ccccc4)ncnc32)cc1`, the IC50 came to 34.7 µM in test [1] (setting [3]) and 19.5 µM in test [1] (setting [4]). Besides, the IC50 result in test [2] was “inactive”.

`OC[C@@H]1[C@@H](c2ccc(Cl)cc2)C(c2cccc(Cl)c2)=NN1c1ccccc1`: the IC50 in test [1] (setting [3]) turned out to be 30.5 µM; in test [1] (setting [4]), 16.4 µM. Moreover, the IC50 entry in test [2] is “inactive”.

As to `COc1ccc(-c2oc3ccc(-c4cc(OC)c(OC)c(OC)c4)cc3c2C#Cc2ccccn2)cc1`, the values for the IC50 in test [1] (setting [3]), in test [1] (setting [4]) and in test [2] were 2.89 µM, 21.5 µM and 12.2 µM, respectively.

As for `COC(=O)C1=C(C(=O)OC)C(C(=O)OC)C(C(=O)OC)C(C(=O)OC)(C(=O)OC)C(C(=O)OC)=C1C(=O)OC` (centres undefined), the IC50 in test [1] (setting [3]) is 16.9 µM; in test [1] (setting [4]) it was 10.7 µM; in test [2], 13.8 µM.

Turning to `NC1=NC[C@H](Cc2ccccc2)N1CCc1cc(C(F)(F)F)cc(C(F)(F)F)c1`, the values for the IC50 in test [1] (setting [3]) and in test [1] (setting [4]) were 46.5 µM and 17.1 µM, respectively. Also, in test [2], the IC50 entry is “inactive”.

Turning to `Cc1ccc(Cn2c(=N)n(CC(=O)c3ccccc3)c3ccccc32)cc1`, the values for the IC50 in test [1] (setting [3]), in test [1] (setting [4]) and in test [2] were 15.4 µM, 17.6 µM and 16.5 µM, respectively.

As for `COc1ccc(C(O)(CCC(C)C)C(CN2CCOCC2)c2ccccc2)cc1` (centres undefined), the IC50 was 30.5 µM in test [1] (setting [3]) and 30.2 µM in test [1] (setting [4]). Also, in test [2], the IC50 result is “inactive”.

As for `CCN(CC)CCN1CCN(c2cncc(-c3ccc4ccccc4c3)n2)CC1`, the IC50 was determined as 34.4 µM in test [1] (setting [3]) and 11.9 µM in test [1] (setting [4]). In addition, in test [2], the IC50 entry is “inactive”.

For the molecule `CCCCCCCn1c(=N)n(CC(O)c2ccco2)c2ccccc21` (centres undefined), the IC50 in test [1] (setting [3]) was found to be 22 µM; in test [1] (setting [4]), 22.2 µM. Besides, the IC50 result in test [2] was “inactive”.

As to `Cc1nn(-c2ccccc2)c2c1C(c1ccc([N+](=O)[O-])cc1)N1C(=N2)C(=O)Nc2ccccc21` (centres undefined), the results for the IC50 in test [1] (setting [3]), in test [1] (setting [4]) and in test [2] were greater than 100 µM, greater than 100 µM and > 100 µM (inactive), respectively.

With `CC(=O)Nc1cccc(-c2ccnc3c2CC(C)(C(=O)Nc2cccc(OC(F)(F)F)c2)O3)c1` (centres undefined), the IC50 in test [1] (setting [3]) is 8.81 µM; in test [1] (setting [4]) it was 25.7 µM; in test [2], 17.3 µM.

Take `CN1CCC(N(C)C(=O)/C=C/c2cn(-c3ccccc3)nc2-c2cccs2)CC1`: the IC50 in test [1] (setting [3]) is 18.4 µM; in test [1] (setting [4]), 19.7 µM; in test [2] it was 19 µM.

In the case of `Cc1ccc(C(=O)NCCc2cccs2)cc1`, the IC50 in test [1] (setting [3]) is 3.98 µM; in test [1] (setting [4]) it was 20 µM; in test [2] it was 12 µM.

As for `Cc1cc2c(c(/C=C/C(=O)c3ccccc3)c1)OC1(C=C2)Oc2ccccc2C(=O)N1C` (centres undefined), the IC50 is 20.4 µM in test [1] (setting [3]), 15.5 µM in test [1] (setting [4]) and 18 µM in test [2].

In the case of `O=C(/C=C/c1cc(Br)ccc1O)c1ccco1`, the IC50 in test [1] (setting [3]) was 16.1 µM; in test [1] (setting [4]), 8.44 µM; in test [2] it was 12.3 µM.

`CCC1=C(CC2NCCc3ccccc32)CC2c3cc(OC)c(OC)cc3CCN2C1` (centres undefined): the IC50 in test [1] (setting [3]) was 15.1 µM; in test [1] (setting [4]), 13.3 µM; in test [2], 14.2 µM.

As for `COc1ccc(-c2cc(C(=O)N(C)Cc3ccc(OC)c(OC)c3OC)c3ccccc3n2)cc1OC`, the IC50 in test [1] (setting [3]) stood at 13.4 µM; in test [1] (setting [4]), 30.9 µM. For the same molecule, the IC50 entry in test [2] is “inactive”.

`COc1ccc(CC(N)c2csc(NC(=O)Nc3ccccc3C(C)(C)C)n2)cc1` (centres undefined): the results for the IC50 in test [1] (setting [3]) and in test [1] (setting [4]) were 19.1 µM and 31 µM, respectively. The IC50 entry in test [2] is “inactive”.

With `O=c1c2c3c(sc2nc(N2CCNCC2)n1CCc1ccccc1)CCCCC3`, the IC50 in test [1] (setting [3]) was 32.1 µM; in test [1] (setting [4]) it was 17.4 µM. For the same molecule, the IC50 entry in test [2] was “inactive”.

For the molecule `Cc1ccsc1C(=O)OCC(=O)c1cc(C)n(CC2CCCO2)c1C` (centres undefined), the IC50 was 11.8 µM in test [1] (setting [3]), 18 µM in test [1] (setting [4]) and 14.9 µM in test [2].

With `N=c1c2c(-c3ccccc3)c(-c3ccccc3)n(Cc3ccccc3)c2ncn1CCO`, the IC50 in test [1] (setting [3]) is 18.8 µM; in test [1] (setting [4]) it was 10.6 µM; in test [2], 14.7 µM.

For the molecule `CCc1nc(Nc2ccc(N3CCN(C(C)=O)CC3)cc2)c2oc3ccccc3c2n1`, the IC50 in test [1] (setting [3]) is 28.1 µM; in test [1] (setting [4]) it was 94.9 µM. Also, the IC50 entry in test [2] is “inactive”.

Regarding `NC(=O)c1nsc(C(=O)N(c2ccccc2F)C(C(=O)NCc2ccc(F)cc2)c2ccc(O)cc2)c1N` (centres undefined), the IC50 was 30.4 µM in test [1] (setting [3]) and 16.6 µM in test [1] (setting [4]). Moreover, in test [2], the IC50 result was “inactive”.

Regarding `COCOCCn1cc(CN2CCS(=O)(=O)N(Cc3ccc(-c4ccc(Cl)c(Cl)c4)cc3)C(C(C)C)C2=O)nn1` (centres undefined), the IC50 in test [1] (setting [3]) turned out to be 34.9 µM; in test [1] (setting [4]), 18 µM. Moreover, in test [2], the IC50 result is “inactive”.

`CCCCNc1c(-c2cccc(Sc3ccc(OC)cc3)c2)nc2ccccn12`: the IC50 in test [1] (setting [3]) was 16.7 µM; in test [1] (setting [4]) it was 10.6 µM; in test [2] it was 13.6 µM.

Turning to `Cn1cccc1/C=C1/C(=O)NC(=S)N(Cc2ccc(F)cc2)C1=O`, the values for the IC50 in test [1] (setting [3]) and in test [1] (setting [4]) were 31.9 µM and 38.1 µM, respectively. Further, in test [2], the IC50 result is “inactive”.

For the molecule `O=C(Nc1ccccc1)NN(C(=O)CCl)c1ccccc1`, the IC50 is 20.1 µM in test [1] (setting [3]), 13.3 µM in test [1] (setting [4]) and 16.7 µM in test [2].

In the case of `O=C(Cc1csc(Nc2nc(=S)[nH]c3ccccc23)n1)NCc1ccccc1Cl`, the 50% inhibitory concentration (IC50) in test [1] (setting [3]) was greater than 100 µM; in test [1] (setting [4]), greater than 100 µM; in test [2] it was > 100 µM (inactive).

On to `CCOc1cccc2sc(N(CCCN(C)C)C(=O)c3ccc(S(=O)(=O)N(CC)Cc4ccccc4)cc3)nc12`, for which the IC50 was 19.1 µM in test [1] (setting [3]), 11.8 µM in test [1] (setting [4]) and 15.4 µM in test [2].

In the case of `COc1cc(OC)c(OC)cc1CCC(C)NCCC(c1ccccc1)c1ccccc1` (centres undefined), the IC50 in test [1] (setting [3]) was 20.3 µM; in test [1] (setting [4]) it was 16.5 µM; in test [2], 18.4 µM.

In the case of `CS(=O)(=O)c1ccc2nc(NC(=O)CCS(=O)(=O)c3ccccc3)sc2c1`, the IC50 is greater than 100 µM in test [1] (setting [3]) and 18.9 µM in test [1] (setting [4]). Besides, the IC50 result in test [2] is “inactive”.

As for `CCN1CCN(Cc2ccc(NC(=O)c3cc(NC(=O)c4ccno4)cc(OC)c3)cc2C(F)(F)F)CC1`, the IC50 in test [1] (setting [3]) was 40.6 µM; in test [1] (setting [4]), 45.3 µM. Besides, the IC50 result in test [2] was “inactive”.

On to `CCCC(=O)N1CCCC(c2cc(C(=O)Nc3ccccc3)no2)C1` (centres undefined), for which the figures for the IC50 in test [1] (setting [3]), in test [1] (setting [4]) and in test [2] were 8.68 µM, 14.3 µM and 11.5 µM, respectively.
